Laboratory results from PubChem BioAssay AID248 (DTP/NCI, 2004).
“And” between values parts separate entries of the source, which are not always exact repeats. Equal entries are not always repeated. Inconclusive results and toxic doses are left out.

Test system: L1210 leukemia ip in BDF1 mice, survival T/C
Test: NCI In Vivo Anticancer Drug Screen. Data for tumor model L1210 Leukemia (intraperitoneal) in B6D2F1 (BDF1) mice
Conditions: endpoint: mean survival time, higher = longer survival
Procedure, shortened: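 Tumor was transplanted into mice, which were then dosed with test compound or vehicle alone. Survival was recorded for each group, and the treated figure was expressed relative to the control figure.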

[1] = dose: 100.0 mg/kg/injection, schedule: Q04DX003 (ip), vehicle: saline with Tween-80
[2] = dose: 200.0 mg/kg/injection, schedule: Q04DX003 (ip), vehicle: saline with Tween-80
[3] = dose: 400.0 mg/kg/injection, schedule: Q04DX003 (ip), vehicle: saline with Tween-80
[4] = dose: 100.0 mg/kg/injection, schedule: Q01DX009 (ip), vehicle: Klucel (hydroxypropylcellulose) (HPC)
[5] = dose: 200.0 mg/kg/injection, schedule: Q01DX009 (ip), vehicle: Klucel (hydroxypropylcellulose) (HPC)
[6] = dose: 400.0 mg/kg/injection, schedule: Q01DX009 (ip), vehicle: Klucel (hydroxypropylcellulose) (HPC)
[7] = dose: 100.0 mg/kg/injection, schedule: Q01DX009 (ip), vehicle: saline
[8] = dose: 25.0 mg/kg/injection, schedule: Q01DX009 (ip), vehicle: saline
[9] = dose: 50.0 mg/kg/injection, schedule: Q01DX009 (ip), vehicle: saline
[10] = dose: 100.0 mg/kg/injection, schedule: Q01DX001 (ip), vehicle: saline
[11] = dose: 200.0 mg/kg/injection, schedule: Q01DX001 (ip), vehicle: saline
[12] = dose: 400.0 mg/kg/injection, schedule: Q01DX001 (ip), vehicle: saline
[13] = dose: 100.0 mg/kg/injection, schedule: Q04DX002 (ip), vehicle: Klucel (hydroxypropylcellulose) (HPC)
[14] = dose: 200.0 mg/kg/injection, schedule: Q04DX002 (ip), vehicle: Klucel (hydroxypropylcellulose) (HPC)
[15] = dose: 400.0 mg/kg/injection, schedule: Q04DX002 (ip), vehicle: Klucel (hydroxypropylcellulose) (HPC)
[16] = dose: 200.0 mg/kg/injection, schedule: Q01DX009 (ip), vehicle: saline
[17] = dose: 100.0 mg/kg/injection, schedule: Q04DX003 (ip), vehicle: Klucel (hydroxypropylcellulose) (HPC)
[18] = dose: 200.0 mg/kg/injection, schedule: Q04DX003 (ip), vehicle: Klucel (hydroxypropylcellulose) (HPC)

NC(=O)c1ccc[n+](CC(=O)Nc2ccccc2)c1
T/C [1]: 101 % of control | T/C [2]: 97 % of control | T/C [3]: 95 % of control

O=C(O)c1cccnc1Br
T/C [1]: 105 % of control | T/C [2]: 101 % of control | T/C [3]: 100 % of control

O=NN(CCCl)C(=O)N[C@@H]1CCCC[C@H]1O
T/C (dose: 1.6 mg/kg/injection, schedule: Q01DX001 (ip), vehicle: saline with Tween-80): 106 % of control | T/C (dose: 2.4 mg/kg/injection, schedule: Q01DX001 (ip), vehicle: saline with Tween-80): 116 % of control | T/C (dose: 5.4 mg/kg/injection, schedule: Q01DX001 (ip), vehicle: saline with Tween-80): 183 % of control | T/C (dose: 6.0 mg/kg/injection, schedule: Q01DX001 (ip), vehicle: saline with Tween-80): 302 % of control | T/C (dose: 8.0 mg/kg/injection, schedule: Q01DX001 (ip), vehicle: saline with Tween-80): 441 % of control | T/C (dose: 9.0 mg/kg/injection, schedule: Q01DX001 (ip), vehicle: saline with Tween-80): 492 % of control | T/C (dose: 12.0 mg/kg/injection, schedule: Q01DX001 (ip), vehicle: saline with Tween-80): 441 % of control and 468 % of control | T/C (dose: 13.0 mg/kg/injection, schedule: Q01DX001 (ip), vehicle: saline with Tween-80): 505 % of control | T/C (dose: 18.0 mg/kg/injection, schedule: Q01DX001 (ip), vehicle: saline with Tween-80): 441 % of control | T/C (dose: 20.0 mg/kg/injection, schedule: Q01DX001 (ip), vehicle: saline with Tween-80): 505 % of control | T/C (dose: 26.0 mg/kg/injection, schedule: Q01DX001 (ip), vehicle: saline with Tween-80): 166 % of control | T/C (dose: 30.0 mg/kg/injection, schedule: Q01DX001 (ip), vehicle: saline with Tween-80): 195 % of control

O=C1c2cccc3cccc(c23)C(=O)N1CC1CCCO1 (stereo not drawn)
T/C [4]: 94 % of control | T/C [5]: 94 % of control | T/C [6]: 87 % of control

CC[As](=O)(O)CC(C)C
T/C [7]: 96 % of control

CC[P+](CC)(CC)CCCCI
T/C (dose: 12.0 mg/kg/injection, schedule: Q01DX009 (ip), vehicle: saline): 94 % of control | T/C [8]: 101 % of control | T/C (dose: 25.0 mg/kg/injection, schedule: Q04DX003 (ip), vehicle: saline): 105 % of control | T/C [9]: 101 % of control and 91 % of control | T/C (dose: 50.0 mg/kg/injection, schedule: Q04DX003 (ip), vehicle: saline): 114 % of control

CCC(CC)C(=O)NC(=O)NC(C)=O
T/C (dose: 75.0 mg/kg/injection, schedule: Q01DX001 (ip), vehicle: Klucel (hydroxypropylcellulose) (HPC)): 91 % of control | T/C (dose: 150.0 mg/kg/injection, schedule: Q01DX001 (ip), vehicle: Klucel (hydroxypropylcellulose) (HPC)): 102 % of control | T/C (dose: 300.0 mg/kg/injection, schedule: Q01DX001 (ip), vehicle: Klucel (hydroxypropylcellulose) (HPC)): 88 % of control

Nc1ncc(CCCOc2ccccc2)c(=O)[nH]1
T/C [1]: 96 % of control | T/C [2]: 98 % of control | T/C [3]: 93 % of control

CCN(CC)c1cccc(O)c1
T/C [1]: 90 % of control | T/C [2]: 95 % of control

Clc1ccnc(SCc2ccccc2)n1
T/C (dose: 100.0 mg/kg/injection, schedule: Q01DX Z (ip), vehicle: methylcellulose (MC)): 91 % of control | T/C (dose: 200.0 mg/kg/injection, schedule: Q01DX Z (ip), vehicle: methylcellulose (MC)): 104 % of control

Cn1c(=O)cc(C=Nc2ccc(S(N)(=O)=O)cc2)c2ccccc21
T/C [10]: 102 % of control | T/C [11]: 100 % of control | T/C [12]: 98 % of control

CCCCCCCCCCC(CCCCCCC)(CCCCCCCC)CCCCCCCCC (stereo not drawn)
T/C (dose: 133.0 mg/kg/injection, schedule: Q01DX001 (ip), vehicle: saline with Tween-80): 102 % of control | T/C (dose: 200.0 mg/kg/injection, schedule: Q01DX001 (ip), vehicle: saline with Tween-80): 107 % of control | T/C (dose: 300.0 mg/kg/injection, schedule: Q01DX001 (ip), vehicle: saline with Tween-80): 102 % of control | T/C (dose: 400.0 mg/kg/injection, schedule: Q01DX001 (ip), vehicle: saline with Tween-80): 101 % of control

CCOC(=O)c1cn(C2OC(COC(=O)c3ccccc3)C(OC(=O)c3ccccc3)C2OC(=O)c2ccccc2)c(=O)nc1Nc1ccccc1Cl (stereo not drawn)
T/C (dose: 25.0 mg/kg/injection, schedule: Q01DX005 (ip), vehicle: saline): 104 % of control | T/C (dose: 50.0 mg/kg/injection, schedule: Q01DX005 (ip), vehicle: saline): 105 % of control | T/C (dose: 75.0 mg/kg/injection, schedule: Q01DX005 (ip), vehicle: saline): 105 % of control | T/C (dose: 100.0 mg/kg/injection, schedule: Q01DX005 (ip), vehicle: saline): 123 % of control | T/C (dose: 200.0 mg/kg/injection, schedule: Q01DX005 (ip), vehicle: saline): 92 % of control

O=C1/C(=C\c2ccc(Cl)c(Cl)c2)N2CCC1CC2
T/C [13]: 96 % of control | T/C [14]: 104 % of control | T/C [15]: 114 % of control

O=C(/C=C/c1ccc2c(c1)OCO2)/C=C/c1ccc2c(c1)OCO2
T/C [8]: 89 % of control | T/C [9]: 88 % of control | T/C [7]: 91 % of control | T/C [16]: 88 % of control

CCOC(=O)NCS(=O)(=O)c1ccccc1-c1ccccc1
T/C [17]: 93 % of control | T/C [18]: 104 % of control

CCCCN(CCCC)CC(O)c1cc(-c2ccc(Cl)c(Cl)c2)nc2c(Cl)cc(Cl)cc12 (stereo not drawn)
T/C [10]: 103 % of control | T/C [11]: 94 % of control | T/C [12]: 94 % of control

O=c1/c(=C\c2ccc(Cl)c(Cl)c2)sc2n1CCN=2
T/C [10]: 86 % of control | T/C [12]: 93 % of control

NC(=S)N/N=C1/CCCCC12CCCCC2
T/C (dose: 50.0 mg/kg/injection, schedule: Q01DX001 (ip), vehicle: saline): 116 % of control | T/C [10]: 91 % of control | T/C [11]: 124 % of control | T/C [12]: 100 % of control

O=C(O)C(O)C(=O)O
T/C [9]: 95 % of control | T/C [7]: 89 % of control | T/C (dose: 100.0 mg/kg/injection, schedule: Q04DX003 (ip), vehicle: saline): 103 % of control | T/C [16]: 92 % of control | T/C (dose: 200.0 mg/kg/injection, schedule: Q04DX003 (ip), vehicle: saline): 100 % of control

CCOP(=O)(OCC)Oc1c(Cl)c(Cl)c(O)c(Cl)c1Cl
T/C (dose: 100.0 mg/kg/injection, schedule: Q04DX002 (ip), vehicle: saline with Tween-80): 91 % of control | T/C (dose: 200.0 mg/kg/injection, schedule: Q04DX002 (ip), vehicle: saline with Tween-80): 100 % of control

O=C(O)C1CCC(CC23CC4CC(CC(C4)C2)C3)CC1 (stereo not drawn)
T/C [4]: 108 % of control | T/C [17]: 103 % of control | T/C [5]: 103 % of control | T/C [18]: 105 % of control | T/C [6]: 109 % of control | T/C (dose: 400.0 mg/kg/injection, schedule: Q04DX003 (ip), vehicle: Klucel (hydroxypropylcellulose) (HPC)): 101 % of control

Cc1cccc(NC(=O)NCC(=O)NNC(=O)Nc2cc([N+](=O)[O-])ccc2C)n1
T/C (dose: 50.0 mg/kg/injection, schedule: Q01DX009 (ip), vehicle: Klucel (hydroxypropylcellulose) (HPC)): 100 % of control | T/C [4]: 89 % of control | T/C [5]: 88 % of control

O=C(O)CCC(C(=O)O)N1C(=O)c2ccccc2C1=O (stereo not drawn)
T/C [1]: 97 % of control | T/C [2]: 102 % of control | T/C [3]: 105 % of control

CSC(SC)C(O)C(O)C(O)C(O)CO (stereo not drawn)
T/C (dose: 50.0 mg/kg/injection, schedule: Q04DX002 (ip), vehicle: saline): 103 % of control | T/C (dose: 100.0 mg/kg/injection, schedule: Q04DX002 (ip), vehicle: saline): 113 % of control | T/C (dose: 200.0 mg/kg/injection, schedule: Q04DX002 (ip), vehicle: saline): 92 % of control

NC(CCSCc1ccccc1)C(=O)O (stereo not drawn)
T/C (dose: 12.5 mg/kg/injection, schedule: Q04DX002 (ip), vehicle: Klucel (hydroxypropylcellulose) (HPC)): 107 % of control | T/C (dose: 25.0 mg/kg/injection, schedule: Q04DX002 (ip), vehicle: Klucel (hydroxypropylcellulose) (HPC)): 97 % of control | T/C (dose: 50.0 mg/kg/injection, schedule: Q04DX002 (ip), vehicle: Klucel (hydroxypropylcellulose) (HPC)): 97 % of control | T/C [13]: 113 % of control | T/C [14]: 98 % of control | T/C [15]: 98 % of control

CC1(N)CCC(C(C)(C)N)CC1 (stereo not drawn)
T/C (dose: 25.0 mg/kg/injection, schedule: Q01DX009 (ip), vehicle: saline with Tween-80): 103 % of control | T/C (dose: 50.0 mg/kg/injection, schedule: Q01DX009 (ip), vehicle: saline with Tween-80): 97 % of control | T/C (dose: 100.0 mg/kg/injection, schedule: Q01DX009 (ip), vehicle: saline with Tween-80): 92 % of control
